Experimental data reported in ChEMBL document CHEMBL1143173, “2D Autocorrelation, CoMFA, and CoMSIA modeling of protein tyrosine kinases' inhibition by substituted pyrido[2,3-d]pyrimidine derivatives” (Bioorg Med Chem, 2008).

Tests used:
[1] = Inhibition of PDGFR
[2] = Inhibition of FGFR
[3] = biological target: Proto-oncogene tyrosine-protein kinase Src (Homo sapiens) (UniProt P12931); experiment: Inhibition of cSrc
Sequence of Proto-oncogene tyrosine-protein kinase Src (Homo sapiens) (P12931 2-536 limits assumed): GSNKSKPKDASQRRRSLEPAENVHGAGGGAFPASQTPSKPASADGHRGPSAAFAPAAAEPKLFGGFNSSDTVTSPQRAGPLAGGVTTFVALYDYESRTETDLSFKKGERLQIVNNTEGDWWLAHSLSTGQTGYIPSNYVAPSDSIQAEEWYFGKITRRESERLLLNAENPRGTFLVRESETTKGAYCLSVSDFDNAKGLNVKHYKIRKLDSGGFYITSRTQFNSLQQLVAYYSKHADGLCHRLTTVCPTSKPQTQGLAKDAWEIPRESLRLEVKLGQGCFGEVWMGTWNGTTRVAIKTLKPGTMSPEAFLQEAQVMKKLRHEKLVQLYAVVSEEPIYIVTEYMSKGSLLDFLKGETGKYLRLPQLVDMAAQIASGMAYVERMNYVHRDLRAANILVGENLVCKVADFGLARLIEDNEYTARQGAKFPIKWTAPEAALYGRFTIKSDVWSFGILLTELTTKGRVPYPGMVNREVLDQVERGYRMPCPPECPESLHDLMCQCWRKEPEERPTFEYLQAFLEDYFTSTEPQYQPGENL

Row | Compound | log(10^6/IC50) [1] | log(10^6/IC50) [2] | log(10^6/IC50) [3]
1 | CCOc1cc(OCC)cc(-c2cc3cnc(N)nc3nc2NC(=O)NC(C)(C)C)c1 | 1.3 | 2.78 | 1.3
2 | CC(C)(C)NC(=O)Nc1nc2nc(N)ncc2cc1-c1cc(C(F)(F)F)cc(C(F)(F)F)c1 | 1.3 | 1.3 | 1.3
3 | CN(C)c1cc(-c2cc3cnc(N)nc3nc2NC(=O)NC(C)(C)C)cc(N(C)C)c1 | 1.3 | 1.8 | 1.3
4 | COc1ccc(NC(=O)Nc2nc3nc(NCCCN4CCN(C)CC4)ncc3cc2-c2c(Cl)cccc2Cl)cc1 | – | – | 4.55

Results, then the molecule that gave them:

Row | log(10^6/IC50) [1] | log(10^6/IC50) [2] | log(10^6/IC50) [3] | Compound
5 | 4.15 | 4.21 | 5 | Cn1c(=O)c(-c2c(Cl)cccc2Cl)cc2cnc(Nc3ccc(CC(=O)O)cc3)nc21
6 | 1.3 | 1.3 | 2 | Cn1c(=O)c(-c2c(Cl)cccc2Cl)cc2cncnc21
7 | 1.37 | 3.9 | 1.3 | COc1cc(OC)cc(-c2cc3cnc(N)nc3n(C)c2=O)c1
8 | 1.3 | 1.3 | 1.3 | Cc1ncc2cc(-c3c(Cl)cccc3Cl)c(=O)n(C)c2n1
9 | 3.94 | 4.29 | 5 | CN1CCN(c2ccc(Nc3ncc4cc(-c5c(Cl)cccc5Cl)c(=O)n(C)c4n3)cc2)CC1
10 | 1.3 | 1.3 | 1.3 | CN(C)c1ncc2cc(-c3c(Cl)cccc3Cl)c(=O)n(C)c2n1
